Experimental data reported in ChEMBL document CHEMBL1201862, “PubChem BioAssay data set” (2004).
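In this assay, cells in 96-well plates receive the compound at five concentrations for 48 hours. Endpoints are linearly interpolated between the surrounding concentrations. At the GI50, growth is halved.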 Active and inactive are the calls of the source. Rule as the data show it: active = GI50 up to about 1.1 µM and inactive = higher.

Assays:
Experiment in all cases: NCI tumour cell line growth inhibition, 48 h
HCC 2998 = tested on: HCC 2998
K562 = tested on: K562
KM12 = tested on: KM12
DU-145 = tested on: DU-145
OVCAR-5 = tested on: OVCAR-5
NCI/ADR-RES = tested on: NCI/ADR-RES
COLO 205 = tested on: COLO 205
NCI-H226 = tested on: NCI-H226
OVCAR-8 = tested on: OVCAR-8
BT-549 = tested on: BT-549
HOP-62 = tested on: HOP-62
SF-295 = tested on: SF-295
LOX IMVI = tested on: LOX IMVI
786-0 = tested on: 786-0
SW-620 = tested on: SW-620
RPMI-8226 = tested on: RPMI-8226
SK-OV-3 = tested on: SK-OV-3
A549 = tested on: A549
UACC-62 = tested on: UACC-62

Measured: GI50

O=C1c2ccccc2NC(=S)[C@@H]2CCCN12
inactive: HCC 2998 > 100 µM | K562 > 100 µM | KM12 > 100 µM | DU-145 > 100 µM | OVCAR-5 > 100 µM | NCI/ADR-RES > 100 µM | COLO 205 > 100 µM | NCI-H226 > 100 µM | OVCAR-8 > 100 µM | BT-549 > 100 µM | HOP-62 > 100 µM | SF-295 > 100 µM | LOX IMVI > 100 µM | 786-0 > 100 µM | SW-620 > 100 µM | RPMI-8226 > 100 µM | SK-OV-3 > 100 µM | A549 > 100 µM | UACC-62 > 100 µM

O=C(Nc1ccccc1)c1cc2c(cc1Cl)SC(NNCCO)=NS2(=O)=O
inactive: HCC 2998 > 100 µM | K562 > 100 µM | KM12 > 100 µM | DU-145 > 100 µM | NCI/ADR-RES > 100 µM | COLO 205 > 100 µM | NCI-H226 > 100 µM | OVCAR-8 > 100 µM | BT-549 > 100 µM | HOP-62 > 100 µM | SF-295 > 100 µM | LOX IMVI > 100 µM | 786-0 > 100 µM | SW-620 > 100 µM | RPMI-8226 > 100 µM | SK-OV-3 > 100 µM | UACC-62 > 100 µM

O=C1NC(=O)c2ccccc2/C1=C/c1ccc2c(c1)OCO2
inactive: HCC 2998 14.6 µM | KM12 17 µM | DU-145 40.3 µM | OVCAR-5 29.2 µM | NCI/ADR-RES 17.9 µM | COLO 205 > 10 µM | NCI-H226 27.9 µM | OVCAR-8 28 µM | BT-549 20.9 µM | HOP-62 11.2 µM | SF-295 24.5 µM | LOX IMVI 20.9 µM | 786-0 8.02 µM | SW-620 30.5 µM | RPMI-8226 19.3 µM | SK-OV-3 27.3 µM | A549 34 µM | UACC-62 22.1 µM

Cc1ccc(-c2n[nH]c(=O)n2NC(=O)c2ccccc2C(=O)O)cc1
inactive: HCC 2998 > 100 µM | K562 > 100 µM | KM12 > 100 µM | DU-145 > 100 µM | NCI/ADR-RES > 100 µM | NCI-H226 > 100 µM | OVCAR-8 > 100 µM | BT-549 > 100 µM | HOP-62 > 100 µM | SF-295 > 100 µM | LOX IMVI > 100 µM | 786-0 > 100 µM | SW-620 > 100 µM | RPMI-8226 > 100 µM | A549 > 100 µM | UACC-62 > 100 µM

CCc1n[nH]c(=O)n1CCO
inactive: HCC 2998 > 100 µM | K562 > 100 µM | KM12 > 100 µM | DU-145 > 100 µM | OVCAR-5 > 100 µM | NCI/ADR-RES > 100 µM | COLO 205 > 100 µM | NCI-H226 > 100 µM | OVCAR-8 > 100 µM | BT-549 > 100 µM | SF-295 > 100 µM | LOX IMVI > 100 µM | 786-0 > 100 µM | SW-620 > 100 µM | RPMI-8226 > 100 µM | SK-OV-3 > 100 µM | A549 > 100 µM | UACC-62 > 100 µM

CC(=O)OC1C2CCC1C1C2N=NN1c1ccc([N+](=O)[O-])cc1 (configuration not stated)
inactive: HCC 2998 > 100 µM | KM12 > 100 µM | DU-145 > 100 µM | OVCAR-5 > 100 µM | NCI/ADR-RES > 100 µM | COLO 205 > 100 µM | NCI-H226 > 100 µM | OVCAR-8 > 100 µM | BT-549 > 100 µM | HOP-62 > 100 µM | SF-295 > 100 µM | LOX IMVI > 100 µM | 786-0 > 100 µM | SW-620 > 100 µM | RPMI-8226 > 100 µM | SK-OV-3 > 100 µM | A549 > 100 µM | UACC-62 > 100 µM

c1ccc(Cn2c(-c3ccc(-c4ccccc4)cc3)cc3ccccc32)cc1
inactive: HCC 2998 > 100 µM | KM12 > 100 µM | DU-145 > 100 µM | OVCAR-5 > 100 µM | NCI/ADR-RES > 100 µM | COLO 205 > 100 µM | NCI-H226 > 100 µM | OVCAR-8 > 100 µM | BT-549 > 100 µM | HOP-62 > 100 µM | SF-295 > 100 µM | LOX IMVI > 100 µM | 786-0 > 100 µM | SW-620 > 100 µM | RPMI-8226 > 100 µM | SK-OV-3 > 100 µM | A549 > 100 µM | UACC-62 > 100 µM

N#Cc1ccc(Nc2nc3[nH]cnc3c(=O)[nH]2)cc1
inactive: HCC 2998 > 100 µM | KM12 > 100 µM | DU-145 > 100 µM | OVCAR-5 > 100 µM | NCI/ADR-RES > 100 µM | COLO 205 > 100 µM | NCI-H226 > 100 µM | OVCAR-8 > 100 µM | BT-549 > 100 µM | HOP-62 > 100 µM | SF-295 > 100 µM | LOX IMVI > 100 µM | 786-0 > 100 µM | SW-620 > 100 µM | RPMI-8226 > 100 µM | SK-OV-3 > 100 µM | A549 > 100 µM | UACC-62 > 100 µM
